# Values of other authors, collected in article PMC3349014 (Journal of the American Chemical Society, 2012).
# Details: over 3 h
row,Rat plasma levels after IV injection,Substance
1,drop to low percent over 3 h,Ac-Im-Py-Py-γ-Im-Py-Py-β-Dp [compound 1035]
2,drop to low percent over 3 h,Ac-Py-Py-β-Py-Im-Py-γ-Py-Py-Py-β-Im-Py-β-Dp [compound 1666]
